Read-outs that look alike come from different tables or passages of the source.
What was measured:
[1] = test system: Systemic and Coronary Vasculature of the Pig; assay: Hemodynamic effects in chronically instrumented, anesthetized swine; format: in vivo
Procedure: Chronically instrumented female swine (70 kg, n=10) (ascending aortic and left anterior descending (LAD) coronary artery transit time flow probes, carotid and internal jugular pressures) were administered five doses of 1-arginine in five-minute intervals. After a period of recovery, four doses of nitroglycerin (1, 2, 3, 4 μg/kg/min) were infused. Sildenafil (100 mg IV) was administered and the 1-arginine and nitroglycerin administrations repeated.
After approval by the Institutional Animal Care and Use Committee, 70 kg female domestic swine (70.5±2.6 kg) were sedated with ketamine (25 mg/kg IM). Mask induction with isoflurane was followed by intubation with an endotracheal tube (6.0 ID 45 cm long). An angiocathether (20 gauge) was placed in an ear vein for IV fluid administration. Prophylactic antibiotics (cefazolin 1 gram IV prior to incision followed by cephalexin 500 mg PO BID) were given. The animal was ventilated with 100% oxygen and isoflurane to maintain anesthesia. A left thoracotomy (T4-5) was performed under sterile conditions. Transonics® (Ithaca, N.Y.) transit time flow probes were placed on the ascending aorta (model 28A) and the proximal left anterior descending coronary artery (3 mm, model 3S). The flow probe cables were tunneled to the animal's back. The thoracotomy was closed and air evacuated with a chest tube. The animals were given ketorolac (30 mg IV) followed by buprenorphine (0.3 to 0.6 mg IM Q8 hours for 5 days) for postoperative pain. The animals were allowed to recover for a minimum of two days before experimentation.
Previously instrumented swine were sedated with ketamine (25 mg/kg IM) and mask-induced with isoflurane. An angiocatheter (20 gauge) was placed in an ear vein for IV fluid administration. Animals were intubated (6.0 ID 45 cm long tube) and ventilated with 100% oxygen and isoflurane. Prophylactic antibiotics were given (cefazolin 1 gm IV). The animal's neck was then opened using sterile technique. Angiocatheters (16 gauge) were placed in the left and right internal jugular veins for central venous pressure monitoring and for drug and fluid infusions. An angiocatheter (20 gauge) was placed in the common carotid artery for blood sampling and pressure measurement. Arterial and central venous pressures were measured with disposable pressure transducers (Abbott Critical Care Systems Transpac® IV, North Chicago, Ill.) and the Transonics® Transit Time Flow meter (Model 206 with (-R) pRessure Option, Ithaca, N.Y.). ECG was monitored (Electronics for Medicine Monitor Model OM). The neck was closed. A supra-pubic bladder catheter was placed using sterile technique for urinary drainage. Data was recorded at 100 Hz using WinDaq data acquisition software (Transonics Systems, Ithaca, N.Y.). The pressure transducers were calibrated using a mercury manometer. Flow probes were calibrated prior to use.
Fentanyl (2 mg), diazepam (20 mg), and pancuronium (10 mg) were administered as a bolus. Isoflurane was simultaneously discontinued.

[2] = L-arginine levels after oral or intravenous L-arginine supplementation; format: in vivo; details: preliminary trial, bolus 30 grams over 15 minutes; from 81±8
Procedure: With respect to the coronary disease applications, we note that L-arginine levels without supplementation are about 116±14 mmol/L and oral administration elevates the levels to about 224±26 mmol/L with improvement in vasomotor function. […] Intravenous infusions (10 mg/kg/min) raised L-arginine levels from about 102±5 to about 8172±122 mmol/L and caused vasodilation. In our preliminary trial a bolus of L-arginine (30 grams over 15 minutes) elevated levels (81±8 to 6900±600 μmol). In preferred embodiments, there were two fundamentally different ranges of L-Arginine levels achieved. Levels that were 1.5 to 2 times baseline and levels that were 50 to 100 times baseline.

[3] = cited from earlier work
[4] = Serum L-arginine and L-citrulline concentrations after IV L-arginine boluses; format: in vivo, swine
Procedure: 2. L-Arginine Administration: A bolus dose of 1-arginine (60 cc of 10% 1-arginine (6 grams)) was administered intravenously. Five minutes later a blood sample was taken. The dose was then repeated. This procedure was repeated a total of five times (total of 300 cc of 10% 1-arginine (30 grams) administered). Thirty minutes were allowed to elapse and then a final blood sample collected.
Blood samples were collected in serum separator tubes and immediately placed on ice. Tubes were centrifuged for 20 minutes and the serum removed and stored in cryovials at −80° C. L-arginine and 1-citrulline levels were quantified by the Protein Structure Lab at the University of California, Davis (Davis, Calif.) with an ion-exchange chromatographer (Beckman 6300 aminoacid analyzer, Fullerton, Calif.). Serum osmolality was measured using an osmometer (Advanced Instruments, Needleham Heights, Mass.) by the Veternary Medical Teaching Hospital Diagnostic Laboratories (Davis, Calif.).

[5] = L-arginine pharmacokinetic parameters from preliminary clinical and animal data; format: in vivo
Procedure: Computer simulation of the predicted L-arginine levels from the high dose (1 mcg/kg/min) yield levels of 420 mmol/L. (T1/2=10 minutes, Volume distribution=0.36 L/kg: obtained from our preliminary clinical and animal data). Computer simulations of the low dose (0.5 mcg/kg/min) yield levels of 260 mmol/L. These doses are in the range to improve endothelial function and prevent vasospasm but will not cause significant vasodilation.

[6] = first administration of sildenafil, 100 mg IV bolus, mean±SE
[7] = first dose of sildenafil, 100 mg IV bolus
[8] = l-arginine alone, five 6 gram IV boluses at 5 min intervals, mean±SE

## CCCc1nn(C)c2c(=O)[nH]c(-c3cc(S(=O)(=O)N4CCN(C)CC4)ccc3OCC)nc12 [sildenafil]
[1]; [6]
  LAD flow, peak: 87.6 ± 7.3 mL/min
  Mean arterial pressure, min.: 78.7±7.0 mmHg
  cardiac output, peak: 10.5 ± 0.8 L/min
  central venous pressure, min.: 9.1±1.1 mmHg
  coronary vascular resistance, min.: 54.7±5.3 dynes*sec*cm^−5*10^3
  heart rate, peak: 165.0±8.9 beats/min
  systemic vascular resistance, min.: 612.2±61.1 dynes*sec*cm^−5
[1]; [7]
  duration of effects on MAP, CVP, CVR, and SVR: persisted through the fifteen-minute observation period
  duration of increase in cardiac output (disappeared after): three
  duration of increase in heart rate: about five
  increase in cardiac output: 1.2 L/min
[1]; sildenafil 100 mg IV before l-arginine boluses, P<0.05
  effect of sildenafil on the l-arginine-induced change in LAD flow: potentiated the effects of 1-arginine on LAD flow
[1]; sildenafil i.v. bolus
  time of peak hemodynamic effect following injection: approximately two

## O=[N+]([O-])OCC(CO[N+](=O)[O-])O[N+](=O)[O-] [Nitroglycerin, nitroglycerin]
[1]; in vivo, iv
  CO, Max Effect: 9.1 ± 0.7 L/min
  CVP, Max Effect: 9.9 ± 1.0 mmHg
  CVR, Max Effect: 98.9 ± 9.8 dynes*sec*cm^−5*10^3
  HR, Max Effect: 128.3 ± 9.0 beats/min
  LAD Flow, Max Effect: 65.4 ± 6.7 mL/min
  MAP, Max Effect: 103.9 ± 6.6 mmHg
  SVR, Max Effect: 882.8 ± 98.6 dynes*sec*cm^−5

## Cl.N=C(N)NCCC[C@H](N)C(=O)O [L-Arginine, 1-arginine hydrochloride]
[2]
  L-arginine levels: 6900 ± 600 µmol
[1]; [8]
  CO, Max Effect: 8.9 ± 0.5 L/min
  CVP, Max Effect: 12.0 ± 1.0 mmHg
  CVR, Max Effect: 89.1 ± 4.7 dynes*sec*cm^−5*10^3
  HR, Max Effect: 106.5 ± 6.7 beats/min
  MAP, Max Effect: 107.4 ± 6.4 mmHg
  SVR, Max Effect: 825.0 ± 39.3 dynes*sec*cm^−5
[1]; l-arginine alone, five 6 gram IV boluses at 5 min intervals, mean±SE, hydrochloride
  LAD Flow, Max Effect: 66.7 ± 6.6 mL/min
[1]; l-arginine alone, five 6 gram IV boluses at 5 min intervals, mean±SE, listed as L-arginine, hydrochloride
  LAD Flow, Max Effect: 66.7 ± 6.6 mL/min
[1]; l-arginine fifth dose compared with mannitol
  change in coronary blood flow relative to the change expected for a similar change in osmolality: 2.6 times
[3]; intravenous infusions 10 mg/kg/min, from about 102±5
  L-arginine levels: about 8172±122 mmol/L
[3]; oral administration, without supplementation about 116±14
  L-arginine levels: about 224±26 mmol/L
[4]; 5 min after Dose #1 (6 grams IV), no sildenafil
  Serum [L-Arginine]: 1987.0 ± 116.8 µM
[4]; 5 min after Dose #2 (6 grams IV each), no sildenafil
  Serum [L-Arginine]: 3139.2 ± 129.6 µM
[4]; 5 min after Dose #3 (6 grams IV each), no sildenafil
  Serum [L-Arginine]: 4143.3 ± 205.4 µM
[4]; 5 min after Dose #4 (6 grams IV each), no sildenafil
  Serum [L-Arginine]: 5232.7 ± 364.6 µM
[4]; 5 min after Dose #5 (total 30 grams IV), no sildenafil
  Serum [L-Arginine]: 5922.1 ± 307.4 µM
[4]; 5 min after L-arginine Dose #1 (6 grams IV), no sildenafil
  Serum [L-Citrulline]: 54.7 ± 5.2 µM
[4]; 5 min after L-arginine Dose #2, no sildenafil
  Serum [L-Citrulline]: 53.2 ± 4.2 µM
[4]; 5 min after L-arginine Dose #3, no sildenafil
  Serum [L-Citrulline]: 54.9 ± 4.4 µM
[4]; 5 min after L-arginine Dose #4, no sildenafil, hydrochloride
  Serum [L-Citrulline]: 61.5 ± 6.7 µM
[4]; 5 min after L-arginine Dose #4, no sildenafil, listed as 1-arginine, hydrochloride
  Serum [L-Citrulline]: 61.5 ± 6.7 µM
[4]; 5 min after L-arginine Dose #5, no sildenafil
  Serum [L-Citrulline]: 60.2 ± 5.9 µM
[4]; 30 min Post last L-arginine dose, no sildenafil
  Serum [L-Citrulline]: 60.5 ± 7.1 µM
[4]; 30 min Post last dose, no sildenafil
  Serum [L-Arginine]: 2592.7 ± 268.9 µM
[5]
  T1/2: 10 min
  Volume distribution: 0.36 L/kg
